According to patent US12419877B2, “Solid forms of {[5-(3-chlorophenyl)-3-hydroxypyridine-2-carbonyl]amino}acetic acid, compositions, and uses thereof” (Akebia Therapeutics, Inc., priority 2013, dated 2025):
Converted amounts (≈) assume the structure as drawn. Read-outs that look alike come from different tables or passages of the source.

Experiment: Solubility experiments (approximate solubility by solvent aliquot addition)
Assay type: physicochemical
Conditions: thermodynamic from solid
Protocol: Approximately 20 mg of Form A of Compound (1) was placed in each of 48 vials and 5 volume aliquots of the appropriate solvent systems were added to the appropriate vial. Between each addition, the mixture was checked for dissolution and if no dissolution was apparent, the mixture was warmed to ca. 50° C. and checked again. This procedure was continued until dissolution was observed or until 100 volumes of solvent had been added.

solubility (aqueous with cosolvent or surfactant or cyclodextrin, Solvent: MeOH/Water (20%), ca. 50° C., read-out: Solubility (mg/mL) (ca. 50° C.)): < 10 mg/mL
solubility (aqueous with cosolvent or surfactant or cyclodextrin, Solvent: MeOH/Water (50%), RT (ca. 22° C.), read-out: Solubility (mg/mL) RT (ca. 22° C.)): < 10 mg/mL
solubility (aqueous with cosolvent or surfactant or cyclodextrin, Solvent: MeOH/Water (50%), ca. 50° C., read-out: Solubility (mg/mL) (ca. 50° C.)): < 10 mg/mL
solubility (ethyl acetate/cyclohexane (1:2), organic solvent or mixture, Solvent: EtOAc/Cyclohexane (1:2), RT (ca. 22° C.), read-out: Solubility (mg/mL) RT (ca. 22° C.)): < 10 mg/mL
solubility (organic solvent or mixture, Solvent: 1,2-Propanediol, RT (ca. 22° C.), read-out: Solubility (mg/mL) RT (ca. 22° C.)): < 20 mg/mL
solubility (organic solvent or mixture, Solvent: 1,2-Propanediol, ca. 50° C., read-out: Solubility (mg/mL) (ca. 50° C.)): 20 mg/mL (≈ 65.2 mM)
solubility (organic solvent or mixture, Solvent: 1,4-Dioxane, RT (ca. 22° C.), read-out: Solubility (mg/mL) RT (ca. 22° C.)): > 200 mg/mL
solubility (organic solvent or mixture, Solvent: 1,4-Dioxane, ca. 50° C., read-out: Solubility (mg/mL) (ca. 50° C.)): > 200 mg/mL
solubility (organic solvent or mixture, Solvent: 1-Butanol (1-BuOH), RT (ca. 22° C.), read-out: Solubility (mg/mL) RT (ca. 22° C.)): < 20 mg/mL
solubility (organic solvent or mixture, Solvent: 1-Butanol (1-BuOH), ca. 50° C., read-out: Solubility (mg/mL) (ca. 50° C.)): 20 mg/mL (≈ 65.2 mM)
solubility (organic solvent or mixture, Solvent: 1-Propanol (1-PrOH), RT (ca. 22° C.), read-out: Solubility (mg/mL) RT (ca. 22° C.)): < 20 mg/mL
solubility (organic solvent or mixture, Solvent: 1-Propanol (1-PrOH), ca. 50° C., read-out: Solubility (mg/mL) (ca. 50° C.)): 20 mg/mL (≈ 65.2 mM)
solubility (organic solvent or mixture, Solvent: 2-Ethoxyethanol, RT (ca. 22° C.), read-out: Solubility (mg/mL) RT (ca. 22° C.)): < 200 mg/mL
solubility (organic solvent or mixture, Solvent: 2-Ethoxyethanol, ca. 50° C., read-out: Solubility (mg/mL) (ca. 50° C.)): 200 mg/mL (≈ 652 mM)
solubility (organic solvent or mixture, Solvent: 2-Methoxyethanol, RT (ca. 22° C.), read-out: Solubility (mg/mL) RT (ca. 22° C.)): > 200 mg/mL
solubility (organic solvent or mixture, Solvent: 2-Methoxyethanol, ca. 50° C., read-out: Solubility (mg/mL) (ca. 50° C.)): > 200 mg/mL
solubility (organic solvent or mixture, Solvent: 2-Methyl tetrahydrofuran (2-MeTHF), RT (ca. 22° C.), read-out: Solubility (mg/mL) RT (ca. 22° C.)): > 200 mg/mL
solubility (organic solvent or mixture, Solvent: 2-Methyl tetrahydrofuran (2-MeTHF), ca. 50° C., read-out: Solubility (mg/mL) (ca. 50° C.)): > 200 mg/mL
solubility (organic solvent or mixture, Solvent: 2-Propanol (IPA), RT (ca. 22° C.), read-out: Solubility (mg/mL) RT (ca. 22° C.)): < 13 mg/mL
solubility (organic solvent or mixture, Solvent: 2-Propanol (IPA), ca. 50° C., read-out: Solubility (mg/mL) (ca. 50° C.)): 13 mg/mL (≈ 42.4 mM)
solubility (organic solvent or mixture, Solvent: 3-Methyl-1-butanol, RT (ca. 22° C.), read-out: Solubility (mg/mL) RT (ca. 22° C.)): < 10 mg/mL
solubility (organic solvent or mixture, Solvent: 3-Methyl-1-butanol, ca. 50° C., read-out: Solubility (mg/mL) (ca. 50° C.)): < 10 mg/mL
solubility (organic solvent or mixture, Solvent: Acetone/Water (3%), RT (ca. 22° C.), read-out: Solubility (mg/mL) RT (ca. 22° C.)): < 200 mg/mL
solubility (organic solvent or mixture, Solvent: Acetone/Water (3%), ca. 50° C., read-out: Solubility (mg/mL) (ca. 50° C.)): 200 mg/mL (≈ 652 mM)
solubility (organic solvent or mixture, Solvent: Acetone/Water (20%), RT (ca. 22° C.), read-out: Solubility (mg/mL) RT (ca. 22° C.)): < 200 mg/mL
solubility (organic solvent or mixture, Solvent: Acetone/Water (20%), ca. 50° C., read-out: Solubility (mg/mL) (ca. 50° C.)): 200 mg/mL (≈ 652 mM)
solubility (organic solvent or mixture, Solvent: Acetone, RT (ca. 22° C.), read-out: Solubility (mg/mL) RT (ca. 22° C.)): 100 mg/mL (≈ 326 mM)
solubility (organic solvent or mixture, Solvent: Acetone, ca. 50° C., read-out: Solubility (mg/mL) (ca. 50° C.)): > 100 mg/mL
solubility (organic solvent or mixture, Solvent: Acetonitrile, RT (ca. 22° C.), read-out: Solubility (mg/mL) RT (ca. 22° C.)): < 13 mg/mL
solubility (organic solvent or mixture, Solvent: Acetonitrile, ca. 50° C., read-out: Solubility (mg/mL) (ca. 50° C.)): 13 mg/mL (≈ 42.4 mM)
solubility (organic solvent or mixture, Solvent: Anisole, RT (ca. 22° C.), read-out: Solubility (mg/mL) RT (ca. 22° C.)): < 40 mg/mL
solubility (organic solvent or mixture, Solvent: Anisole, ca. 50° C., read-out: Solubility (mg/mL) (ca. 50° C.)): 40 mg/mL (≈ 130 mM)
solubility (organic solvent or mixture, Solvent: Benzonitrile, RT (ca. 22° C.), read-out: Solubility (mg/mL) RT (ca. 22° C.)): < 10 mg/mL
solubility (organic solvent or mixture, Solvent: Benzonitrile, ca. 50° C., read-out: Solubility (mg/mL) (ca. 50° C.)): < 10 mg/mL
solubility (organic solvent or mixture, Solvent: Benzyl alcohol, RT (ca. 22° C.), read-out: Solubility (mg/mL) RT (ca. 22° C.)): < 68 mg/mL
solubility (organic solvent or mixture, Solvent: Benzyl alcohol, ca. 50° C., read-out: Solubility (mg/mL) (ca. 50° C.)): 68 mg/mL (≈ 222 mM)
solubility (organic solvent or mixture, Solvent: Chloroform, RT (ca. 22° C.), read-out: Solubility (mg/mL) RT (ca. 22° C.)): < 10 mg/mL
solubility (organic solvent or mixture, Solvent: Chloroform, ca. 50° C., read-out: Solubility (mg/mL) (ca. 50° C.)): < 10 mg/mL
solubility (organic solvent or mixture, Solvent: Cumene, RT (ca. 22° C.), read-out: Solubility (mg/mL) RT (ca. 22° C.)): < 10 mg/mL
solubility (organic solvent or mixture, Solvent: Cumene, ca. 50° C., read-out: Solubility (mg/mL) (ca. 50° C.)): < 10 mg/mL
solubility (organic solvent or mixture, Solvent: Cyclohexane, RT (ca. 22° C.), read-out: Solubility (mg/mL) RT (ca. 22° C.)): < 10 mg/mL
solubility (organic solvent or mixture, Solvent: Cyclohexane, ca. 50° C., read-out: Solubility (mg/mL) (ca. 50° C.)): < 10 mg/mL
solubility (organic solvent or mixture, Solvent: Cyclohexanone, RT (ca. 22° C.), read-out: Solubility (mg/mL) RT (ca. 22° C.)): < 200 mg/mL
solubility (organic solvent or mixture, Solvent: Cyclohexanone, ca. 50° C., read-out: Solubility (mg/mL) (ca. 50° C.)): 200 mg/mL (≈ 652 mM)
solubility (organic solvent or mixture, Solvent: Dichloromethane (DCM), RT (ca. 22° C.), read-out: Solubility (mg/mL) RT (ca. 22° C.)): < 10 mg/mL
solubility (organic solvent or mixture, Solvent: Dichloromethane (DCM), ca. 50° C., read-out: Solubility (mg/mL) (ca. 50° C.)): < 10 mg/mL
solubility (organic solvent or mixture, Solvent: Diethyl ether, RT (ca. 22° C.), read-out: Solubility (mg/mL) RT (ca. 22° C.)): < 10 mg/mL
solubility (organic solvent or mixture, Solvent: Diethyl ether, ca. 50° C., read-out: Solubility (mg/mL) (ca. 50° C.)): 10 mg/mL (≈ 32.6 mM)
solubility (organic solvent or mixture, Solvent: Diisopropyl ether (DIPE), RT (ca. 22° C.), read-out: Solubility (mg/mL) RT (ca. 22° C.)): < 10 mg/mL
SMILES: O=C(O)CNC(=O)c1ncc(-c2cccc(Cl)c2)cc1O [Form A of Compound (I), {[5-(3-chlorophenyl)-3-hydroxypyridine-2-carbonyl]amino}acetic acid]
